The source of these data is article PMC9969401, “Discovery of 2-(3-Benzamidopropanamido)thiazole-5-carboxylate Inhibitors of the Kinesin HSET (KIFC1) and the Development of Cellular Target Engagement Probes” (Journal of Medicinal Chemistry, 2023).

Data set [1] concerns the target T1, recombinant full-length HSET (Homo sapiens, UniProt Q9BW19).
T1 construct: 5 nM full-length human N-terminal His-tag HSET; His-tag (N)
T1 sequence (Q9BW19 1-673): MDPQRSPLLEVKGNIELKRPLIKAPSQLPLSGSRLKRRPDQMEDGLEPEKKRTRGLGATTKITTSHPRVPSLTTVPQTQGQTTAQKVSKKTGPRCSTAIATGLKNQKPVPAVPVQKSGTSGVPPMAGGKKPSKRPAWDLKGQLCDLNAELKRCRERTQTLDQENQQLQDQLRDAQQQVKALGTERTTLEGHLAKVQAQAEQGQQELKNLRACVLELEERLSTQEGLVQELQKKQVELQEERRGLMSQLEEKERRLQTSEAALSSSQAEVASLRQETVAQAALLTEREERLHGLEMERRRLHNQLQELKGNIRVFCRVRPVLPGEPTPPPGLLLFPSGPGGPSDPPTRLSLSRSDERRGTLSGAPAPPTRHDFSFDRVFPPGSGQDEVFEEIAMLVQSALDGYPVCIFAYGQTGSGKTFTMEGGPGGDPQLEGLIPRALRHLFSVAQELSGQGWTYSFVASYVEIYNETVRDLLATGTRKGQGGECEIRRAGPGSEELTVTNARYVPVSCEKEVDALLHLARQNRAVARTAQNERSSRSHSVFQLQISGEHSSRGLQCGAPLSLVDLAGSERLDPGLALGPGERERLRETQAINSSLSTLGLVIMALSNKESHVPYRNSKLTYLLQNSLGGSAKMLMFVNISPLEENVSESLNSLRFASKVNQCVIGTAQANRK
The data set can be described thus: ADP-Glo HSET assay (3 μM ATP), microtubule-stimulated ATPase. In kind it is biochemical. The conditions noted are these: preformed microtubules, 3 μM ATP; mean (±SD) n ≥ 3 (37 n = 2, 38 single determination) (Table 3); read-out: HSET ADP-Glo IC50. On the procedure: The HSET or Eg5 ATPase activity was measured using the ADP-Glo Kinase Assay kit (Promega, V9102). The assays were run using final concentrations of 5 nM full-length human N-terminal His-tag HSET or 4 nM GST-tagged Eg5 motor domain protein (Cytoskeleton, EG01) and an assay buffer containing 20 mM HEPES pH 6.8, 10 mM MgCl2, 0.25 mM EGTA, 0.4 mM Triton X-100, and 1 mM DTT. Preformed microtubules (Universal Biologicals Cambridge, bovine MT001-XL, or porcine MT002-XL), which were reconstituted in 15 mM PIPES pH 7, 1 mM MgCl2, and 20 μM paclitaxel, were present at a final assay concentration of 70 μg/mL. A reaction volume of 5 μL was used in Proxiplate 384 plus white assay plates (PerkinElmer, 6008280). To measure compound inhibition, 100 nL of compound dissolved in DMSO or DMSO alone was preincubated with the HSET and microtubules for 10 min before 3 μM Ultra-Pure ATP was added to start the ATPase reaction for the 3 μM ATP HSET assay. For the 500 μM ATP HSET assay, the addition of 500 μM Ultra-Pure ATP was used. For the Eg5 ATPase assay, 4.8 μM Ultra-Pure ATP was used. All reactions were incubated at 25 °C for 80 min and then stopped by the addition of 5 μL of the ADP-Glo reagent. 10 μL of Kinase Detection Reagent was then added after a further 45 min of incubation. The luminescence was read after 45 min on a PheraStar FSX plate reader (BMG Labtech). The data processing was performed using Dotmatics Studies software package. Percentage inhibition was determined based on normalization to high controls (0% inhibition, all reagents with 100 nL of DMSO alone) and low controls (100% inhibition […], without HSET). The IC50 values for each compound were determined using a four-parameter logistic curve fit of % inhibition versus concentration.

The nature of data set [2]: Kinetic aqueous solubility (KSol), HPLC-UV. In kind it is physicochemical. The conditions noted are these: PBS buffer pH 7.4, 100 μM solution with 1% DMSO, HPLC with UV detection.
For another data set, the target named is T2, HSET in DLD1 4N cells (Homo sapiens, UniProt Q9BW19).
T2 construct: overlapped with the signal from the antibody-probed endogenous HSET protein; endogenous in cells; host or cells: DLD1 4N cells
T2 sequence (Q9BW19 1-673): T1 sequence (Q9BW19 1-673)
Briefly: Click probe localization target engagement imaging in DLD1 4N cells. In kind it is cell-based. Particulars: DLD1 4N cells treated with 40. On the procedure: (§1) The Cy-5 tetrazine dye selected for this experiment is not cell-permeable, thus fixation and permeabilization of cells were necessary prior to its addition. Experiments were conducted in DLD1 4N cells and, as a negative control, isogenic 2N DLD1 HSET KO cells in which HSET expression was prevented by the disruption of the HSET gene using CRISPR. Cells were treated first with proTAME for 2 h to accumulate mitotic events, followed by treatment with the TCO probe 40 for 45 min. The live cells were then fixed and permeabilized before treatment with the tetrazine-Cy5 dye and incubation to allow the IEDDA reaction to occur. Additionally, the cells were stained for the endogenous HSET protein using indirect immunofluorescence and imaged to observe the fluorescence from both the TCO probe and antibody-labeled HSET. […] A 3 μM concentration of the probe 40 gave an acceptable signal-to-noise ratio of around 2:1. Even under these optimal conditions, some residual uniform cytoplasmic Cy5 signal was observed within the cells. However, a clear Cy5 decoration of the mitotic spindle was seen, which overlapped with the signal from the antibody-probed endogenous HSET protein (Figures 2A and S6). […] We observed a 14–17-fold increase in signal in DLD1 4N cells treated with 40 relative to tetrazine-Cy5 alone. […] Comparing the intensity of click probe labeling coincident with the mitotic spindle in DLD1 4N cells to that in DLD1 HSET KO cells after both were treated with 40, we observed a twofold higher signal in the former.
(§2) Direct target engagement of active inhibitor 36 was measured by calculating its capacity to displace the TCO-containing probe 40. 4N DLD1 cells and DLD1 HSET KO cells (negative control) were plated in 96-well ibidi μ-Clear plates (IB-89626, ibidi). Cells were first treated for 2 h with 8 μM pro-TAME (I-440–01M, R&D system) to accumulate mitotic cells and were then treated with 8 μM MG-132 (S2619, SelleckChem) and 3 μM 40, alone or together with active inhibitor 36 in DMEM media with 1% FBS for 45 min. Cells were then washed three times in DMEM, with the second wash being incubated for 10 min to ensure the optimal reduction of unspecific compound binding. After an additional PBS wash, cells were then fixed in 4% PFA/PBS (15670799, Thermo Scientific) prior to incubation with 400 nM tetraszine-Cy5 (CLK-015-05, Jena Biosciences) in 1.5% FBS/PBS for 10 min at room temperature. Cells were permeabilized by the addition of 0.5% TritonX-100/PBS for 5 min before being stained overnight for Pericentrin (1:1500 ab28144 mouse anti-PCNT, Abcam) and KIFC1 (1:1500 12313S rabbit anti-KIFC1, Cell Signaling Technologies). Secondary antibodies Alexa Fluor 488 donkey antirabbit and Alexa Fluor 555 donkey antimouse (1:1500, A21206 and A31570, respectively, Life Technologies) were added together with 1 μg/mL DAPI (D9542, Sigma) in 1.5% FBS in PBS.
(§3) Plates were imaged at 40× using a Zeiss LSM980 confocal microscope with Airyscan 2. The subsequent analysis and quantification were performed using 3D image segmentation with the Arivis4D software. Mitotic cells were segmented by selecting for the highest density (integrated DAPI intensity/total volume), and the mitotic pole areas were segmented using the Pericentrin signal. The signal of the click probe (Cy5) and total KIFC1 (FITC) was measured on the mitotic pole area, and both were normalized to the control condition containing 40 probe alone. The ratio of probe per target (click probe pole integrated intensity signal/KIFC1 pole integrated intensity signal) was used to calculate the occupancy of the probe in the target protein and normalized to the control condition containing 40 probe alone (n > 100 for each replicate, two replicates per concentration point).

A further data set concerns DLD1 HSET KO cells. Briefly: Click probe localization imaging in DLD1 HSET KO cells (negative control). It counts as cell-based, human. The conditions noted are these: HSET nonexpressing (DLD1 HSET KO) cells. On the procedure:
as §1, §2, §3

With `CCCOC(=O)c1sc(NC(=O)C[C@H](CCCN(C)CCOCCOCCNC(=O)O[C@@H]2CC/C=C/CCC2)NC(=O)c2cccc(-c3noc(C)n3)c2)nc1C` [Compound 39, Propyl 2-((S)-1-(((S,E)-Cyclooct-4-en-1-yl)oxy)-11-methyl-15-(3-(5-methyl-1,2,4-oxadiazol-3-yl)benzamido)-1-oxo-5,8-dioxa-2,11-diazaheptadecan-17-amido)-4-methylthiazole-5-carboxylate], the IC50 (as a rule, the concentration that inhibits the measured activity by half) in data set [1] amounted to 107 nM. Also, the KSol data in data set [2] turned out to be 53 µM.

On to `CCCOC(=O)c1sc(NC(=O)C[C@@H](CCCNC)NC(=O)c2cccc(-c3noc(C)n3)c2)nc1C` [Compound 34, Propyl (R)-4-Methyl-2-(3-(3-(5-methyl-1,2,4-oxadiazol-3-yl)benzamido)-6-(methylamino)hexanamido)thiazole-5-carboxylate], for which the IC50 in data set [1] amounted to 260 nM. For the same compound, in data set [2], the KSol data is >90 µM.

Take `CCCOC(=O)c1sc(NC(=O)C[C@H](CCCN)NC(=O)c2cccc(-c3noc(C)n3)c2)nc1C` [Compound 33, Propyl (S)-2-(6-Amino-3-(3-(5-methyl-1,2,4-oxadiazol-3-yl)benzamido)hexanamido)-4-methylthiazole-5-carboxylate]: the IC50 in data set [1] came to 13 nM. Moreover, the KSol data in data set [2] is >90 µM.

Turning to `CCCOC(=O)c1sc(NC(=O)C[C@H](CCCN(C)CC#CCNC(=O)O[C@@H]2CC/C=C/CCC2)NC(=O)c2cccc(-c3noc(C)n3)c2)nc1C` [Compound 40, propyl 2-((S)-6-((4-(((((S,E)-Cyclooct-4-en-1-yl)oxy)carbonyl)amino)but-2-yn-1-yl)(methyl)amino)-3-(3-(5-methyl-1,2,4-oxadiazol-3-yl)benzamido)hexanamido)-4-methylthiazole-5-carboxylate], the IC50 in data set [1] was determined as 39 nM. Further, the KSol data in data set [2] stood at 1.1 µM. Also, the “fold increase in signal relative to tetrazine-Cy5 alone” value was 14–17 fold at HSET in DLD1 4N cells and 7–8 fold in the data set on DLD1 HSET KO cells.
